Literature values in paper PMC5320730, “Synthetic curcumin derivative DK1 possessed G2/M arrest and induced apoptosis through accumulation of intracellular ROS in MCF-7 breast cancer cells” (Cancer Cell International, 2017).

Test system: MCF-7 cells
Conditions: cited from earlier work

Row | Molecule | SI (normal vs cancerous cell line) | SI value (on MCF-7)
1 | 4-hydroxy tamoxifen | < 2 | 
2 | O=C1c2ccccc2C(=O)c2c(O)cc(Br)cc21 [BHAQ, 3-Bromo-1-hydroxy-9,10-anthraquinone] |  | 2.31
